Results as given in patent US20260262643A1, “HERBICIDAL BENZOXAZINES” (FMC CORPORATION, priority 2022, published 2026).

Experiments:
oat, wild [1] = test: Test C preemergence; format: in vivo, Avena fatua; details: preemergence, 0 to 100 scale (0 no effect, 100 complete control)
Procedure, shortened: (§1)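 Visual injury score, 0–100 (100 = complete control), taken 10 days after treatment relative to untreated controls. Pre: directed spray onto soil over sown seeds. Post: foliar spray at one- to two-leaf stage, 2–10 cm. Solvent/surfactant formulation; loam–sand soil; greenhouse.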

pigweed, palmer [2] = test: Test C preemergence; format: in vivo, Amaranthus palmeri; details: preemergence, 0 to 100 scale (0 no effect, 100 complete control)
Procedure, shortened: as §1

corn [3] = test: Test C preemergence; format: in vivo, Zea mays; details: preemergence, 0 to 100 scale (0 no effect, 100 complete control)
Procedure, shortened: as §1

corn [4] = test: Test C postemergence; format: in vivo, Zea mays; details: 10 days
Procedure, shortened: as §1

galium = test: Test C postemergence; format: in vivo, Galium aparine; details: 10 days
Procedure, shortened: as §1

barnyardgrass [5] = test: Test C preemergence; format: in vivo, Echinochloa crusgalli; details: 0 to 100 scale (0 no effect, 100 complete control)
Procedure, shortened: as §1

barnyardgrass [6] = test: Test C postemergence; format: in vivo, Echinochloa crusgalli; details: 10 days
Procedure, shortened: as §1

ragweed [7] = test: Test C preemergence; format: in vivo, Ambrosia artemisiifolia; details: preemergence, 0 to 100 scale (0 no effect, 100 complete control)
Procedure, shortened: as §1

rice = test: Test D flooded paddy test; format: in vivo, Oryza sativa; details: 250 g ai/ha, applied to paddy water, visual rating after 13 to 14 days, scale 0 to 100 (0 no effect, 100 complete control)
Procedure, shortened: (§2)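 At the 2-leaf stage, floodwater 3 cm deep received the test compound; that depth persisted throughout. Plants scored visually 13 to 14 days on, 0 (no effect) to 100 (complete control), dash indicating no result.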

kochia [8] = test: Test C postemergence; format: in vivo, Bassia scoparia; details: 125 g ai/ha, postemergence, 10 days; 0 to 100 scale, 0 no effect, 100 complete control
Procedure, shortened: as §1

horseweed = test: Test C postemergence; format: in vivo, Erigeron canadensis; details: 10 days
Procedure, shortened: as §1

wheat [9] = test: Test C preemergence; format: in vivo, Triticum aestivum; details: preemergence, 0 to 100 scale (0 no effect, 100 complete control)
Procedure, shortened: as §1

ryegrass, Italian [10] = test: Test C preemergence; format: in vivo, Lolium multiflorum; details: preemergence, 0 to 100 scale (0 no effect, 100 complete control)
Procedure, shortened: as §1

kochia [11] = test: Test C preemergence; format: in vivo, Bassia scoparia; details: preemergence, 0 to 100 scale (0 no effect, 100 complete control)
Procedure, shortened: as §1

sedge, umbrella = test: Test D flooded paddy test; format: in vivo, Cyperus difformis; details: 250 g ai/ha, applied to paddy water, visual rating after 13 to 14 days, scale 0 to 100 (0 no effect, 100 complete control)
Procedure, shortened: as §2

soybean [12] = test: Test C preemergence; format: in vivo, Glycine max; details: preemergence, 0 to 100 scale (0 no effect, 100 complete control)
Procedure, shortened: as §1

soybean [13] = test: Test C postemergence; format: in vivo, Glycine max; details: 125 g ai/ha, postemergence, 10 days; 0 to 100 scale, 0 no effect, 100 complete control
Procedure, shortened: as §1

blackgrass [14] = test: Test C postemergence; format: in vivo, Alopecurus myosuroides; details: 10 days
Procedure, shortened: as §1

barnyardgrass [15] = test: Test D flooded paddy test; format: in vivo, Echinochloa crus-galli; details: 250 g ai/ha, applied to paddy water, visual rating after 13 to 14 days, scale 0 to 100 (0 no effect, 100 complete control)
Procedure, shortened: as §2

pigweed, palmer [16] = test: Test C postemergence; format: in vivo, Amaranthus palmeri; details: 125 g ai/ha, postemergence, 10 days; 0 to 100 scale, 0 no effect, 100 complete control
Procedure, shortened: as §1

ducksalad = test: Test D flooded paddy test; format: in vivo, Heteranthera limosa; details: 250 g ai/ha, applied to paddy water, visual rating after 13 to 14 days, scale 0 to 100 (0 no effect, 100 complete control)
Procedure, shortened: as §2

green foxtail [17] = test: Test C postemergence; format: in vivo, Setaria viridis; details: 10 days
Procedure, shortened: as §1

green foxtail [18] = test: Test C preemergence; format: in vivo, Setaria viridis; details: preemergence, 0 to 100 scale (0 no effect, 100 complete control)
Procedure, shortened: as §1

ryegrass, Italian [19] = test: Test C postemergence; format: in vivo, Lolium multiflorum; details: 125 g ai/ha, postemergence, 10 days; 0 to 100 scale, 0 no effect, 100 complete control
Procedure, shortened: as §1

wheat [20] = test: Test C postemergence; format: in vivo, Triticum aestivum; details: 125 g ai/ha, postemergence, 10 days; 0 to 100 scale, 0 no effect, 100 complete control
Procedure, shortened: as §1

blackgrass [21] = test: Test C preemergence; format: in vivo, Alopecurus myosuroides; details: 0 to 100 scale (0 no effect, 100 complete control)
Procedure, shortened: as §1

oat, wild [22] = test: Test C postemergence; format: in vivo, Avena fatua; details: 125 g ai/ha, postemergence, 10 days; 0 to 100 scale, 0 no effect, 100 complete control
Procedure, shortened: as §1

ragweed [23] = test: Test C postemergence; format: in vivo, Ambrosia artemisiifolia; details: 125 g ai/ha, postemergence, 10 days; 0 to 100 scale, 0 no effect, 100 complete control
Procedure, shortened: as §1

[24] = 125 g ai/ha, postemergence, 0 to 100 scale, 0 no effect, 100 complete control
[25] = Postemergence, 500 g ai/ha, visual 0 to 100 scale (0 no effect, 100 complete control)
[26] = Preemergence, 500 g ai/ha, visual rating after 10 days
[27] = Test C, preemergence, 125 g ai/ha

Cc1ccc(-n2cnc(C3(C)COC3)n2)cc1C(=O)N1C[C@H](C)Oc2c(Cl)cccc21 [Compound 275]
95: Plant response rating, Sedge, Umbrella (Flood) (sedge, umbrella)
85: Plant response rating, Ducksalad (Flood) (ducksalad)
35: Plant response rating, Barnyardgrass (Flood) (barnyardgrass [15])
30: Corn plant response rating (corn [3]; Test C, 125 g ai/ha) | Wheat plant response rating (wheat [9]; Test C, 125 g ai/ha)
70: Wheat plant response rating (wheat [9]; 500 g ai/ha) | Plant response rating, Foxtail, Green (green foxtail [17]; [24])
50: Oat, Wild plant response rating (oat, wild [1]; Test C, 125 g ai/ha) | Plant response rating, Barnyardgrass (barnyardgrass [6]; [24]) | Blackgrass plant response rating (blackgrass [21]; [27])
60: Corn plant response rating (corn [3]; 500 g ai/ha) | Ragweed plant response rating (ragweed [7]; Test C, 125 g ai/ha) | Plant response rating, Horseweed (horseweed; [24]) | Plant response rating, Oat, Wild (oat, wild [22])
100: Pigweed, Palmer plant response rating (pigweed, palmer [2]; 500 g ai/ha) | Pigweed, Palmer plant response rating (pigweed, palmer [2]; Test C, 125 g ai/ha) | Plant response rating, Galium (galium; [24]) | Plant response rating, Galium (galium; [25]) | Plant response rating, Barnyardgrass (barnyardgrass [5]; [26]) | Barnyardgrass plant response rating (barnyardgrass [5]; [27]) | Ryegrass, Italian plant response rating (ryegrass, Italian [10]; 500 g ai/ha) | Kochia plant response rating (kochia [11]; 500 g ai/ha) | Soybean plant response rating (soybean [12]; 500 g ai/ha) | Plant response rating, Soybean (soybean [13]) | Foxtail, Green plant response rating (green foxtail [18]; 500 g ai/ha) | Foxtail, Green plant response rating (green foxtail [18]; Test C, 125 g ai/ha)
80: Ragweed plant response rating (ragweed [7]; 500 g ai/ha) | Plant response rating, Kochia (kochia [8]) | Ryegrass, Italian plant response rating (ryegrass, Italian [10]; Test C, 125 g ai/ha) | Kochia plant response rating (kochia [11]; Test C, 125 g ai/ha) | Soybean plant response rating (soybean [12]; Test C, 125 g ai/ha) | Plant response rating, Blackgrass (blackgrass [14]; [24]) | Plant response rating, Pigweed, Palmer (pigweed, palmer [16]) | Plant response rating, Ragweed (ragweed [23])
40: Plant response rating, Wheat (wheat [20])
10: Plant response rating, Corn (corn [4]; [24]) | Plant response rating, Rice (Flood) (rice)
90: Oat, Wild plant response rating (oat, wild [1]; 500 g ai/ha) | Plant response rating, Corn (corn [4]; [25]) | Plant response rating, Barnyardgrass (barnyardgrass [6]; [25]) | Plant response rating, Horseweed (horseweed; [25]) | Plant response rating, Blackgrass (blackgrass [14]; [25]) | Plant response rating, Foxtail, Green (green foxtail [17]; [25]) | Plant response rating, Ryegrass, Italian (ryegrass, Italian [19]) | Plant response rating, Blackgrass (blackgrass [21]; [26])
